# Reference: patent publication US10725042B2, “Methods of diagnosing and treating cancer” (Case Western Reserve University, priority 2012, dated 2020)
# System: H1975 wt tumors
# Test: H1975 wt xenografts in NOD-SCID mice
# Type: in vivo
# Procedure: Tumor cells in early passage (5×10^6) were injected into bilateral flanks of female NODSCID mice (6 weeks old). When tumor volumes reached 100 mm3, mice were divided into control (n=4) and treatment (n=6) groups. Mice bearing tumors were treated with pemetrexed (150 mg/kg) or 100 μl sterile PBS (control) by daily intraperitoneal injection (IP) for 5 consecutive days. Tumor measurements were taken every 2 days and response was quantified by tumor volume.
smiles,measurement,setting,value
Nc1nc2[nH]cc(CCc3ccc(C(=O)N[C@@H](CCC(=O)O)C(=O)O)cc3)c2c(=O)[nH]1 [pemetrexed],tumors smaller than untreated controls,"H1975 wild type tumors, day 20, pemetrexed 150 mg/kg IP x5",37.8%
same,tumor quadrupling time,"H1975 wt tumors, pemetrexed 150 mg/kg IP, 5 daily injections",9.68 ± 0.31 days
